Measured values from US20120122727A1, “IN VITRO METHOD FOR PREDICTING WHETHER A COMPOUND IS GENOTOXIC IN VIVO” (priority 2009, published 2012).

System: primary mouse hepatocytes
Assay: Gene expression (Affymetrix Mouse Genome 430 2.0) in primary mouse hepatocytes, true vs false GTX, 24 h and 48 h
Conditions: 48 h; log2, corrected for vehicle control

CC(=O)Nc1ccc2c(c1)Cc1ccccc1-2 [2-AAF, 2-Acetylaminofluorene]
Gene expression AK005731 average: 0.01113 | Gene expression AK007854 average: 1.4303 | Gene expression AK010447 average: −0.3256 | Gene expression AK010738 average: 0.1851 | Gene expression AK014608 average: −0.01987 | Gene expression AK017734 average: 0.0451 | Gene expression AK018383 average: 0.2303 | Gene expression AK019979 average: −0.5099 | Gene expression AV095209 average: −0.3718 | Gene expression AV141095 average: −0.5829 | Gene expression AV173869 average: −0.3782 | Gene expression AV216768 average: −0.6814 | Gene expression AV219418 average: 0.7839 | Gene expression AV221299 average: 0.6759 | Gene expression AV246296 average: −0.54 | Gene expression AV251625 average: 0.07103 | Gene expression AV254764 average: −0.006467 | Gene expression AV327248 average: −0.09177 | Gene expression BB009155 average: −0.5851 | Gene expression BB027848 average: 0.5378 | Gene expression BB043558 average: 0.196 | Gene expression BB046347 average: 0.2178 | Gene expression BB140436 average: 0.4693 | Gene expression BB204486 average: −0.6445 | Gene expression BB223872 average: 0.3216 | Gene expression BB246912 average: −0.2264 | Gene expression BB275142 average: 0.1102 | Gene expression BB458460 average: −0.3368 | Gene expression BB463610 average: 0.0872 | Gene expression BB730977 average: −0.9937 | Gene expression BB743970 average: 0.7664 | Gene expression BB770528 average: −0.5594 | Gene expression BB781615 average: −0.1164 | Gene expression BC003284 average: 0.02563 | Gene expression BC004827 average: −0.2015 | Gene expression BC005552 average: −0.126 | Gene expression BC006713 average: 0.4411 | Gene expression BC010318 average: −0.02213 | Gene expression BC012247 average: 0.6286 | Gene expression BC012955 average: 0.05073 | Gene expression BC013893 average: 0.4936 | Gene expression BC017615 average: −0.5229 | Gene expression BC019379 average: −1.215 | Gene expression BC019882 average: 1.577 | Gene expression BC021352 average: −1.127 | Gene expression BC022148 average: 0.456 | Gene expression BC025169 average: −0.2222 | Gene expression BC026131 average: −0.3489 | Gene expression BC027026 average: 0.8063 | Gene expression BC027121 average: −0.1341 | Gene expression BC027185 average: 0.4588 | Gene expression BE956581 average: 0.1808 | Gene expression BF719766 average: 0.2652 | Gene expression BG065754 average: 0.3738 | Gene expression BG066491 average: −1.541 | Gene expression BG076151 average: −0.3358 | Gene expression BG076333 average: −0.1306 | Gene expression BG797099 average: −0.06173 | Gene expression BG967046 average: 0.0391 | Gene expression BI651416 average: 0.3502 | Gene expression BI966443 average: 0.1201 | Gene expression BM198879 average: −0.2887 | Gene expression BM200015 average: 0.5127 | Gene expression BM230508 average: 0.0745 | Gene expression BM936480 average: 0.9169 | Gene expression BQ174991 average: −0.3426 | Gene expression L21027 average: −0.729 | Gene expression NM_007556 average: 0.02703 | Gene expression NM_007980 average: 1.503 | Gene expression NM_007987 average: 0.516 | Gene expression NM_008522 average: 0.1967 | Gene expression NM_008935 average: 0.02783 | Gene expression NM_009897 average: −0.003733 | Gene expression NM_011075 average: −0.5522 | Gene expression NM_011176 average: −0.2632 | Gene expression NM_011316 average: 0.4369 | Gene expression NM_012006 average: 2.771 | Gene expression NM_013642 average: −0.6535 | Gene expression NM_013738 average: −0.2396 | Gene expression NM_013929 average: −0.04163 | Gene expression NM_018881 average: 0.9061 | Gene expression NM_019738 average: −0.193 | Gene expression NM_030697 average: −0.4783 | Gene expression NM_053122 average: −0.106 | Gene expression NM_134147 average: 0.04213 | Gene expression NM_134188 average: 0.9088 | Gene expression X62701 average: −0.356
